Activity calls are given as the source filed them.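 The calls were made as follows: active = tumour findings in long-term animal cancer tests in more than one sex, species or organ; inactive = no tumour finding and more than one negative test.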
Assay: DSSTox (CPDBAS) Carcinogenic Potency Database Summary MultiCellCall Results
Settings: animal carcinogenicity bioassays, multi-cell call summary
In short: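 Summary call drawn from chronic long-term cancer bioassays in rats, mice, hamsters, dogs and nonhuman primates, using the most positive result per sex-species. Score: multispecies=50, multisex=30, multisite=20, summed for combinations.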

SMILES	outcome
O=S1(=O)CC=CC1	inactive; multisex inactive; multispecies inactive
O=[N+]([O-])c1cccc2ccccc12	inactive; multisex inactive; multispecies inactive
O=[N+]([O-])c1cc(N(CCO)CCO)ccc1NCCO	inactive; multisex inactive; multispecies inactive
c1ccc2ccccc2c1	active; multisite active; multisex active; multispecies active
CCc1ccc(C(c2ccc(CC)cc2)C(Cl)Cl)cc1	inactive; multisex inactive; multispecies inactive
S=C1NCCN1	active; multisite active; multisex active; multispecies active
NCCS(=O)(=O)O	inactive; multisex inactive
CC(O)CN(C)N=O (stereo not drawn)	active; multisite active; multisex active
CCC(C)c1cc([N+](=O)[O-])cc([N+](=O)[O-])c1O (stereo not drawn)	inactive; multisex inactive
Oc1ccc2c(c1)OCO2	active; multisex active; multispecies active
FC(F)OC(F)(F)C(F)Cl (stereo not drawn)	inactive; multisex inactive
N=C1C=CC(=C(c2ccc(N)cc2)c2ccc(N)cc2)C=C1	active; multisite active; multisex active; multispecies active
CCCCNN	active; multisex active
Cn1cc(C(=O)O)c(=O)c2ccc(/C=C/c3ccc([N+](=O)[O-])o3)nc21	active; multisite active
C=CCc1ccc(OC)c(OC)c1	active; multisite active; multisex active; multispecies active
O=c1cc(CO)occ1O	active; multisex active
O=C1C(O)N=C(c2ccccc2F)c2cc(Cl)ccc2N1CCO (stereo not drawn)	inactive; multisex inactive
CN(C)CCN(Cc1ccco1)c1ccccn1	inactive; multisex inactive
CC(=O)[O][Sn]([c]1ccccc1)([c]1ccccc1)[c]1ccccc1	inactive; multisex inactive
NC(=O)N(CC(=O)O)N=O	active; multisite active; multisex active
F[B-](F)(F)F	inactive; multisex inactive
O=C(O)COc1cc(Cl)c(Cl)cc1Cl	inactive; multisex inactive; multispecies inactive
CC(O)CN(CCO)N=O (stereo not drawn)	active; multisite active
